Among the data in ChEMBL document CHEMBL5465560, “Selectivity Literature for EUbOPEN Chemogenomic Library” (2024) are % of control, % of inhibition and % activity values, retold here.

Where only a bound is given, the exact number is not on record here.

Test [1] concerns the target T1, Serine/threonine-protein kinase Nek9 (Homo sapiens) (UniProt Q8TD19).
T1 sequence (whole entry): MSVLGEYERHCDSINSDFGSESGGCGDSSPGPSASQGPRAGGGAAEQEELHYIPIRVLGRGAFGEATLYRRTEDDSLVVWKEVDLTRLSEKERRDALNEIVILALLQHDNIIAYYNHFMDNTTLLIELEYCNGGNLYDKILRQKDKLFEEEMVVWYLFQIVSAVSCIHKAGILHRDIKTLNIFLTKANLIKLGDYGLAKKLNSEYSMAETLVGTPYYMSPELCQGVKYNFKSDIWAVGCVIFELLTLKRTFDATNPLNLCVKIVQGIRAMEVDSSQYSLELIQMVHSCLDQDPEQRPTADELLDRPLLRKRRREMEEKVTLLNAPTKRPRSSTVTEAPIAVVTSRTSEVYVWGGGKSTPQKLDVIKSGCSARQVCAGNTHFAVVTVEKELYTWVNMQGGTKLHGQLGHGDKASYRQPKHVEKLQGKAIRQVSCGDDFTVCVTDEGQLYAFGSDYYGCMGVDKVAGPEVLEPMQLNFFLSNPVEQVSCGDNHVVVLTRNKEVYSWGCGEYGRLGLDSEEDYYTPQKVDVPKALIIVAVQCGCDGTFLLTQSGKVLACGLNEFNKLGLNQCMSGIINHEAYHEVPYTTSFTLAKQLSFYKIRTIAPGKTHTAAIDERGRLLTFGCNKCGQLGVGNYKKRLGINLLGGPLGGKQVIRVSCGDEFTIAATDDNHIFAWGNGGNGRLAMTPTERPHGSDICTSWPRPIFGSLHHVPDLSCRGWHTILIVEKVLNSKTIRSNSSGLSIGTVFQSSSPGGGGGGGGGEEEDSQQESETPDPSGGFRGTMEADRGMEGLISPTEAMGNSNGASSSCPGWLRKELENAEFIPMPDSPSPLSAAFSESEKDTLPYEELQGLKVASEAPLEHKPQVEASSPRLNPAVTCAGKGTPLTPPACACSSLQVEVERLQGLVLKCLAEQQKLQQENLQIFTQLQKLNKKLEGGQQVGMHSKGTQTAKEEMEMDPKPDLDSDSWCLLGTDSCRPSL
The test is described as follows: Selectivity interaction (KinomeScan (DiscoverX)) EUB0000595a NEK9. Conditions: at 10 µM.

In test [2] the target is T2, Cyclin-dependent kinase-like 2 (Homo sapiens) (UniProt Q92772).
T2 sequence (whole entry): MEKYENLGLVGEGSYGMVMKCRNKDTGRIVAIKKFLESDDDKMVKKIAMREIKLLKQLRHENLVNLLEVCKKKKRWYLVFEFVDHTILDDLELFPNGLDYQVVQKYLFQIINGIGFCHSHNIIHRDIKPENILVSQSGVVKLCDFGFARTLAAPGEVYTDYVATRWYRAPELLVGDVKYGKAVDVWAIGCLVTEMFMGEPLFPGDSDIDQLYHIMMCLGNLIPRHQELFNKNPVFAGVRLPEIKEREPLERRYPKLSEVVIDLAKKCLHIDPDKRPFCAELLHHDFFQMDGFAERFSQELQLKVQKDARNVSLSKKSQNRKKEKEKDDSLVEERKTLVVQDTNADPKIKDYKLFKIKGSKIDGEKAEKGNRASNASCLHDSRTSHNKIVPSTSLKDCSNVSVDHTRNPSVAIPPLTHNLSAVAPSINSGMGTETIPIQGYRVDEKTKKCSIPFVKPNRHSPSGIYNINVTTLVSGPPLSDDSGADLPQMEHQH
Briefly: Selectivity interaction (KinomeScan (DiscoverX)) EUB0001619a CDKL2. Conditions: at 1 µM.

Test [3] deals with Proto-oncogene tyrosine-protein kinase Src (Homo sapiens, UniProt P12931). The test is described as follows: Selectivity interaction (KinomeScan (DiscoverX)) EUB0000695a SRC. As to conditions: at 100 nM.
The target of test [4] is Serine/threonine-protein kinase MRCK beta (Homo sapiens) (UniProt Q9Y5S2). The test is described as follows: Selectivity interaction (KinomeScan (DiscoverX)) EUB0000695a CDC42BPB. As to conditions: at 100 nM.
The target of test [5] is Tyrosine-protein kinase Fgr (Homo sapiens) (UniProt P09769). Briefly: Selectivity interaction (KinomeScan (DiscoverX)) EUB0000666a FGR. As to conditions: at 10 µM.
In test [6] the target is T1, Serine/threonine-protein kinase Nek9 (Homo sapiens). The test is described as follows: Selectivity interaction (ActivX KiNativ screen (kinase selectivity in THP-1 cell lysates)) EUB0000639a NEK9. The format is subcellular. Conditions: lysate, at 0.2 µM.
The target of test [7] is Histone-lysine N-methyltransferase SETDB1 (Homo sapiens) (UniProt Q15047). As to conditions: at 10 µM.
Test [8] has as its target Dual specificity tyrosine-phosphorylation-regulated kinase 1B (Homo sapiens, UniProt Q9Y463). The test is described as follows: Selectivity interaction (ProQinase) EUB0000171b DYRK1B.
The target in test [9] is Activin receptor type-2B (Homo sapiens) (UniProt Q13705). Briefly: Selectivity interaction (Ambit KINOMEscan and KiNATiv profiling in Jurkat cells) EUB0000090b ACVR2B. Conditions: at 1 µM. Type of test: cell-based.
The target of test [10] is Serine/threonine-protein kinase SIK1 (Homo sapiens) (UniProt P57059). The test is described as follows: Selectivity interaction (Kinase panel (Carna Biosciences)) EUB0001542aTs SIK1. As to conditions: at 1 µM.
The target in test [11] is Serine/threonine-protein kinase PAK 1 (Homo sapiens) (UniProt Q13153). The test is described as follows: Selectivity interaction (KinomeScan (DiscoverX)) EUB0000655a PAK1. Conditions: at 10 µM.
Test [12] concerns the target T3, Serine/threonine-protein kinase Nek5 (Homo sapiens) (UniProt Q6P3R8).
T3 sequence (whole entry): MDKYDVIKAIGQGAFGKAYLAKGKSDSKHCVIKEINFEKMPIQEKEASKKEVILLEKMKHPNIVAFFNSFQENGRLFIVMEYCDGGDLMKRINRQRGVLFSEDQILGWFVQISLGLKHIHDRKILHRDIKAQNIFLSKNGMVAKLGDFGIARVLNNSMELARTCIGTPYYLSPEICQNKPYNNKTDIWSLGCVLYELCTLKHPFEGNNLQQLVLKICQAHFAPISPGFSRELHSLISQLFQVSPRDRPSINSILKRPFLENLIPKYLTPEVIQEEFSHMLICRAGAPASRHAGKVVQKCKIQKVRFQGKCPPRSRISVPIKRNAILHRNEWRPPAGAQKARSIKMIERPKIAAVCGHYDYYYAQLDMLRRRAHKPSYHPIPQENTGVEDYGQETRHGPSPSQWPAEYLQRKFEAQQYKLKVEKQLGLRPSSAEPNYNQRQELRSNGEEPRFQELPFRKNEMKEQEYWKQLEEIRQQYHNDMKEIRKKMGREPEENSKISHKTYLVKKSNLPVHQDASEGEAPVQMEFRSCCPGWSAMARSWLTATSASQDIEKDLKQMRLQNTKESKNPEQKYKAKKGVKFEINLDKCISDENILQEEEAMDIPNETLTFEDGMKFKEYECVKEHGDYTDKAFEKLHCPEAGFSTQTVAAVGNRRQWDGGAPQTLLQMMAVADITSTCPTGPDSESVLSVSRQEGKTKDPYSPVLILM
Briefly: Selectivity interaction (KinomeScan (DiscoverX)) EUB0000618a NEK5. Conditions: at 10 µM.

Test [13] has as its target Serine/threonine-protein kinase MRCK beta (Homo sapiens) (UniProt Q9Y5S2). Briefly: Selectivity interaction (KinomeScan (DiscoverX)) EUB0000618a CDC42BPB. As to conditions: at 10 µM.

Serine/threonine-protein kinase MRCK beta (Homo sapiens), sequence (Q9Y5S2 whole entry): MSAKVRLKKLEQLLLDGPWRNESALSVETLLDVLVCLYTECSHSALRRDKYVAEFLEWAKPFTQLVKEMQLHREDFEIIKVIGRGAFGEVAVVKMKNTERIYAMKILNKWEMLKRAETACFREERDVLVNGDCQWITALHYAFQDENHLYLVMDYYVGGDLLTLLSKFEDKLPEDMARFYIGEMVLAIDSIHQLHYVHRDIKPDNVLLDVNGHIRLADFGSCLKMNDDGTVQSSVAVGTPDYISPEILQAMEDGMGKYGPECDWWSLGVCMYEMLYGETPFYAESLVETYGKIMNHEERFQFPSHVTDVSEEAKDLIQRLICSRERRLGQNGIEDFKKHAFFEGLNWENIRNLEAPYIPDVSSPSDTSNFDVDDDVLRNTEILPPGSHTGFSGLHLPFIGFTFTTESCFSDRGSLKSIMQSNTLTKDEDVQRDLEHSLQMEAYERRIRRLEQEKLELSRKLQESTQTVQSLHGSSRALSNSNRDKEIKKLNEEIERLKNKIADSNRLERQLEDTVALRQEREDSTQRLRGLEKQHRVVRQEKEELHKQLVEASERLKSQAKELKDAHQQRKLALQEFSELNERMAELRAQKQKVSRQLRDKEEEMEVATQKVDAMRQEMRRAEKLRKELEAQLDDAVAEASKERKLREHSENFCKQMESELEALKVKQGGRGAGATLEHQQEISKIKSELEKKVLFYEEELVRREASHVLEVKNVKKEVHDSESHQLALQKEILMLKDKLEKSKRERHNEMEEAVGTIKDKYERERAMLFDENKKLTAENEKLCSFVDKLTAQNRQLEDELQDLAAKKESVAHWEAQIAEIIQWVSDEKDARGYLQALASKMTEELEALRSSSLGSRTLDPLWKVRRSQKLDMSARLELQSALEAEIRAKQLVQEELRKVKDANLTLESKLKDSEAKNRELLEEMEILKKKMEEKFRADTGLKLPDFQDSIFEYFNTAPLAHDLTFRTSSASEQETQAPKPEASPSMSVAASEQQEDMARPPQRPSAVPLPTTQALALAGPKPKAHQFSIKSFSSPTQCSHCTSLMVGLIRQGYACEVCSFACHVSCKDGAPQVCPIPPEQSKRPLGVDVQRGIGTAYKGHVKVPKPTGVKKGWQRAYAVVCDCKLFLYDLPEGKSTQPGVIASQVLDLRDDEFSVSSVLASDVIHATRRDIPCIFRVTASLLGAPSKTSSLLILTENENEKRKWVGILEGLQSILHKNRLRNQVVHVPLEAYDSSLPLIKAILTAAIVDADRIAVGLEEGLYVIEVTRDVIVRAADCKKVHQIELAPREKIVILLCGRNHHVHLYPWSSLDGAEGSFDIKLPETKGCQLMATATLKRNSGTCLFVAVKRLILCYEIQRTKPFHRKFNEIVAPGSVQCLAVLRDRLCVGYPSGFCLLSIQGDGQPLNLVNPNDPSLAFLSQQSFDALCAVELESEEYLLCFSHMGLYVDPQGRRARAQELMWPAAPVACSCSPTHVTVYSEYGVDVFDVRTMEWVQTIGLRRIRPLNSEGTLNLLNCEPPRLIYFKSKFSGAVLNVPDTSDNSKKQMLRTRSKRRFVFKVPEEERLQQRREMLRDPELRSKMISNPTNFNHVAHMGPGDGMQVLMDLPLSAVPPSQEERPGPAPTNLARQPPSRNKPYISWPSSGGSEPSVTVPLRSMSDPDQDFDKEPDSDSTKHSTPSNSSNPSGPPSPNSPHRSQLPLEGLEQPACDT
Dual specificity tyrosine-phosphorylation-regulated kinase 1B, sequence (Q9Y463 whole entry, looked up): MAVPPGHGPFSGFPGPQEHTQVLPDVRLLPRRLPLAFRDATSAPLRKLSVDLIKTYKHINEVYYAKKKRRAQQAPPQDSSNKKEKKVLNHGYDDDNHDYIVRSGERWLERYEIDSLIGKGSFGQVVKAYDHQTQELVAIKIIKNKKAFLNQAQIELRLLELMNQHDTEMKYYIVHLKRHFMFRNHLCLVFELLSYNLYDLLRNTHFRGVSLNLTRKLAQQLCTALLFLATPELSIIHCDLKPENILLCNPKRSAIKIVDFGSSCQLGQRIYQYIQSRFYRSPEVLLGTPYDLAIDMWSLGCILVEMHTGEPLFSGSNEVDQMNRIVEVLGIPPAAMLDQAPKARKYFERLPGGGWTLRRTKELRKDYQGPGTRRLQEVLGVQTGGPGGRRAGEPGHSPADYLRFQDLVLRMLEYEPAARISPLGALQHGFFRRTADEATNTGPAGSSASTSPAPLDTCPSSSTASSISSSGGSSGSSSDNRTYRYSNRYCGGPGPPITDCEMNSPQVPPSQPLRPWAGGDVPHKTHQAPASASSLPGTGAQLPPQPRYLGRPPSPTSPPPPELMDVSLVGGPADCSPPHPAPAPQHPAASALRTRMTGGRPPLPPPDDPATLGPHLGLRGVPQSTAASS
Activin receptor type-2B (Homo sapiens), sequence (Q13705 whole entry): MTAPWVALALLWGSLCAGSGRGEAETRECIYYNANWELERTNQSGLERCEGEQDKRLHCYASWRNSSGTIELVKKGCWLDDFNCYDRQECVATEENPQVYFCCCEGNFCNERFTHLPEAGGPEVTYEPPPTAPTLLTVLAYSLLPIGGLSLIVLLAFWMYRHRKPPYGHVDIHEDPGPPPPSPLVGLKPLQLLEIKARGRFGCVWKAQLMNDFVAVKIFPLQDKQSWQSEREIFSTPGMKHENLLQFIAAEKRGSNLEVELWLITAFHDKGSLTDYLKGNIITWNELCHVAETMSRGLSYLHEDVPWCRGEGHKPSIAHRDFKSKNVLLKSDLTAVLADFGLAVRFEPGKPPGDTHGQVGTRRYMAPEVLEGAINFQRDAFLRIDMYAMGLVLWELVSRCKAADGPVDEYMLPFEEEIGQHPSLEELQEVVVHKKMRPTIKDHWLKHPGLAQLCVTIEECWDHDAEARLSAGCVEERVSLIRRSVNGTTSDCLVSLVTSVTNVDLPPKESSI
Serine/threonine-protein kinase PAK 1 (Homo sapiens), sequence (Q13153 whole entry): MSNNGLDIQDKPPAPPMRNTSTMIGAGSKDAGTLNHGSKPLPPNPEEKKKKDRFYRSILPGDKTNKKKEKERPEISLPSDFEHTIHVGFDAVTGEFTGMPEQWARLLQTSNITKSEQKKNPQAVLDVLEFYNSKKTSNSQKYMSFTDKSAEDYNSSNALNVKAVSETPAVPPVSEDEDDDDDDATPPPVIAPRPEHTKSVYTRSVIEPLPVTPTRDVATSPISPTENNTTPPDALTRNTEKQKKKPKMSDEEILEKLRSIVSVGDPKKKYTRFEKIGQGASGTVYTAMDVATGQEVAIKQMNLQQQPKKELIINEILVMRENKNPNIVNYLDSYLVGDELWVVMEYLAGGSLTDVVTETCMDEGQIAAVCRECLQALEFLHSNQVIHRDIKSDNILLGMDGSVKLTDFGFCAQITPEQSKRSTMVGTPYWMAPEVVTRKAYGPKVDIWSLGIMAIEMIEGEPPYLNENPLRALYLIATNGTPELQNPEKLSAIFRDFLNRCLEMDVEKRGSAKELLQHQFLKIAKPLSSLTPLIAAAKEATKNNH
Tyrosine-protein kinase Fgr (Homo sapiens), sequence (P09769 2-529 limits assumed): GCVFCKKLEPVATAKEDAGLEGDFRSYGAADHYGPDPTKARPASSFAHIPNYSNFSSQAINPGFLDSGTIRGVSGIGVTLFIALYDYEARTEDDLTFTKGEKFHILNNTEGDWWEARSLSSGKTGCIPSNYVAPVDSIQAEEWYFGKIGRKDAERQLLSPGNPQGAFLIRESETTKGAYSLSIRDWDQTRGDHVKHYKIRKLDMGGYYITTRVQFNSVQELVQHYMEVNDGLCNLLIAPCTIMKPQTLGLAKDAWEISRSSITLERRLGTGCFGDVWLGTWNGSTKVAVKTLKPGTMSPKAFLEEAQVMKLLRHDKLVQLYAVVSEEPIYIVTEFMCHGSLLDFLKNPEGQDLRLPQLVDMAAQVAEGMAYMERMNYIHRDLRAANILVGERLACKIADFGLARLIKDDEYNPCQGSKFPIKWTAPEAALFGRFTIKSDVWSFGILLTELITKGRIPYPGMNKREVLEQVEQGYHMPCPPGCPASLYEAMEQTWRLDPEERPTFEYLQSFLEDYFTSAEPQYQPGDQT
Serine/threonine-protein kinase SIK1 (Homo sapiens), sequence (P57059 whole entry): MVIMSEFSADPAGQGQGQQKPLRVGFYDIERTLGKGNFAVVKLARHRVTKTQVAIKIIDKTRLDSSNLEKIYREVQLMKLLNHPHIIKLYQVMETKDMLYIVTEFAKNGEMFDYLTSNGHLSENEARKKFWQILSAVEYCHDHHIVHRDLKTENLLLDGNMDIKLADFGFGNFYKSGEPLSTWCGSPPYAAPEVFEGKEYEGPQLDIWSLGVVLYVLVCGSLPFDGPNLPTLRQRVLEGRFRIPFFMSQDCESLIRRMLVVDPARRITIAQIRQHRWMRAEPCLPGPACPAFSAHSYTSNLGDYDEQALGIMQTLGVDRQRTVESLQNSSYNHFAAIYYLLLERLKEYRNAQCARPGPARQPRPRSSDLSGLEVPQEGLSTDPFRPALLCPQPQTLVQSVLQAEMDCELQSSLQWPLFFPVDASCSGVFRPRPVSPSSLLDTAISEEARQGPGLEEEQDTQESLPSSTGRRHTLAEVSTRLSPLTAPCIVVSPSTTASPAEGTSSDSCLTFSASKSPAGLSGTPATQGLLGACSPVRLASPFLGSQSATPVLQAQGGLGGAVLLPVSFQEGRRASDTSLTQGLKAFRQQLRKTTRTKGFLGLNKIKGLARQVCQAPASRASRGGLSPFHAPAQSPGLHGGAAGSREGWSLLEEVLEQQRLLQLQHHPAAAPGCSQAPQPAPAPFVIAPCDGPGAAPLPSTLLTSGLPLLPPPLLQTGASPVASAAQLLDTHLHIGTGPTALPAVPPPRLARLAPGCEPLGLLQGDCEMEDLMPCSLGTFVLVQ

For `COCC(=O)NC/C=C/c1ccc2ncnc(Nc3ccc(Oc4ccc(C)nc4)c(C)c3)c2c1` [CP-724714], the % of control in test [1] was found to be 82%. Consider `N#Cc1cccc(-c2c[nH]c3ncnc(N4CCOCC4)c23)c1`, for which, in test [2], the % of control was found to be 98%. For the compound `Cc1cc(F)c(C(=O)Nc2cccc(-c3nncn3C(C)C)n2)cc1-n1cnc(C2CC2)c1`, the % of control in [3] and in test [4] was 100% throughout. The compound `O=C(NOC[C@H](O)CO)c1ccc(F)c(F)c1Nc1ccc(I)cc1F` came in with a % of control in test [5] of 95%. In turn, `CC[C@@H]1[C@H](F)C(=O)N[C@@H]1COc1nccc2cc(C(N)=O)c(OC)cc12` [ZIMLOVISERTIB] registered a % of inhibition in test [6] of 8.3%. As for `CNCCN1CCC(c2cc(CN(C)C(=O)c3cccc(Oc4ccccc4)c3)ccn2)CC1`, the % activity in test [7] is greater than 90%. For the compound `C=CC(=O)Nc1cccc(C(=O)Nc2ccc(Nc3cc(-c4[nH]c(SC)nc4C)ccn3)cc2)c1`, the figures for the % of control in test [8] (at 1 µM) and in test [8] (at 5 µM) were 85% and 53%, respectively.

In [9], `CN(C)C/C=C/C(=O)Nc1ccc(C(=O)N2CCCC(Nc3ncc(Cl)c(-c4c[nH]c5ccccc45)n3)C2)cc1` (centres undefined) returned a % of control of 77%. In the case of `Cn1cc(Nc2nccc(N3CC4CCC(C3)N4C(=O)[C@@H]3CC3(F)F)n2)cn1`, the % of inhibition in [10] worked out at 77%. Regarding `CN(C)CCOc1ccc(-c2nc(-c3ccncc3)c(-c3ccc4c(c3)CC/C4=N\O)[nH]2)cc1`, the % of control in test [11] amounted to 87%. As for `O[C@H]1CC[C@H](Nc2ncc3nc(Nc4c(F)cc(F)cc4F)n([C@H]4CCOC4)c3n2)CC1`, the % of control in test [12] and in test [13] was 100% each time.
